These results are taken from article PMC12117180, “DNA‐Binding Properties of Non‐Intercalating Water‐Soluble Organometallic Ir(III) Luminophores” (Chemistry (Weinheim an Der Bergstrasse, Germany), 2025).

Series [1] is described as follows: Solubility limits in buffer from saturated solutions. It counts as physicochemical. The method, then: We next estimated the solubility limits of the complexes in buffer (25 mM MOPS, pH 7.0, 50 mM NaCl) from saturated solutions, using the molar absorption coefficients in Table S4 (see also Figures S14–18). […] These values mirror the trend predicted (via logP^[ [39] ^]) for the relative hydrophobicities of the cyclometalating ligands, which is ultimately controlled by the ligand substituent (H vs Me vs OMe vs Cl vs OCF3).

Series [2] deals with FSDNA. The series can be described thus: Isothermal titration calorimetry of DNA binding, two types of independent binding sites. Set-up: species or system fish. Particulars: 25 mM MOPS, 5 mM NaCl, pH 7.0, 25 °C; for K A1 / n A1: high-affinity site; for K B1 / n B1: low-affinity site. The method, then: Cooperative self‐aggregation of DNA binders in combination with DNA binding makes data analysis complex because of the presence of coupled equilibria.^[ [46] ^] In the case of aggregation of charged species, the aggregation process tends to be very sensitive to salt concentration. We therefore studied self‐aggregation in buffer at a lower salt concentration (25 mM MOPS, pH 7.0, 5 mM NaCl) and found no indications of self‐aggregation. We therefore opted to carry out the ITC experiments in a buffer with a reduced salt concentration of 5 mM. Titrations were carried out in two parts, viz. a first titration focussing on the first binding event followed by a second titration focussing on the second binding event (Figures S23–25 with complex and DNA concentrations for each individual titration in Table S5). Figures S23 and S25 clearly show two binding events, as anticipated from UV‐visible titrations.
We analyzed the data using a model involving two types of independent binding sites, correcting for dilution heat effects in our custom data analysis software I2CITC^[ [45], [47] ^] […] The complexes also bind to a second lower affinity type of binding site with a size of approximately 2–3 basepairs with an affinity K B1 of the order of 10^5 M^−1 in an exothermic process. Based on the combination of binding site size and the exothermic interaction, we attribute the low‐affinity binding event to non‐specific binding of the cationic complexes to negatively charged DNA, supported by hydrophobic interactions between complexes. The binding site size of the higher affinity binding site exceeds the dimensions of the complexes of around five base pairs, as estimated from the docking studies (vide supra). […] Intriguingly, the relatively low ΔH A1 is in line with groove binding.^[ [48] ^]
Buffers employed in the experiments were 50 mM NaCl and 25 mM MOPS (adjusted to pH 7 with NaOH) and 5 mM NaCl and 25 mM MOPS (adjusted to pH 7 with NaOH). Solutions of DNA were prepared by diluting the DNA stock solutions (see UV‐visible titrations) as required. Complex solutions were prepared by dissolving 5 mg of the complex in 5 mL of buffer, then filtered through a 0.22 µm PES filter to ensure uniform solutions for ITC titration. Concentrations of solutions of complexes and of DNA were determined using UV‐visible spectroscopy. Calorimetric titrations were carried out at 25 °C on a MicroCal PEAQ‐ITC microcalorimeter (Malvern Instruments Ltd., Worcestershire, UK). The instrument was operated by applying a reference power of 10 μcal/s in high‐feedback mode, stirring the sample cell contents at 750 rpm, with a pre‐injection initial delay of 60 s. Solutions of complexes were loaded into the calorimeter injection syringe and DNA solutions were loaded into the sample cell. All experiments involved an initial injection of 0.4 µL in 0.8 s followed by 18 further injections of 2.0 µL in 4.0 s per injection into the calorimeter sample cell. Injections were spaced by at least 90 s to allow full recovery of the baseline. Raw data were treated using MicroCal PEAQ‐ITC Analysis Software (1.41) to generate both integrated heat effects per injection (ΔQ) and molar heat effects per injection (ΔH). Further data analysis was carried out using I2CITC.^[ [45], [47] ^]
For orientation: In ITC the heat of successive injections is recorded.

The test system of series [3] is fish sperm DNA (FSDNA). The series can be described thus: UV-visible titrations with fish sperm DNA, multiple independent binding sites (MIS) model. Particulars: 25 mM MOPS, 50 mM NaCl, pH 7.0, 25 °C; for K (apparent DNA-binding affinity): association constant. The method, then: We then studied the interactions of the complexes with double‐stranded DNA using UV‐visible titrations. Briefly, solutions of 44.14, 31.52, 35.17, 37.55, and 29.62 µM for the five complexes [Ir(L1‐5)2(en)]Cl, respectively, were titrated (in duplicate) with fish sperm DNA (FSDNA) at 25 °C (Figure 7 and Figures S19–22). The interactions between these complexes and DNA turned out not to involve a single type of binding site (vide infra). Nevertheless, the data from the UV‐visible titrations were provisionally analyzed globally using the multiple independent binding sites (MIS) model to determine apparent binding affinities and apparent binding site sizes (Table 4).
All solutions were prepared by dissolving solids in a buffer with stirring, then filtration through a 0.22 µm PES filter to remove solid particles and ensure uniform, saturated solutions before titration. Concentrations were determined using extinction coefficients. MOPS buffer was prepared by dissolving MOPS (3‐(N‐morpholino)propanesulfonic acid, NaCl (all obtained from Fisher and used as supplied) in deionized water (Elga Purelab Flex), adjusting the pH to 7.0 using a NaOH solution (pH of the buffer was determined using a Hanna Instruments pH211 microprocessor pH meter with a Bioblock Scientific pH probe) and making up the solution to 0.5 liter. A stock solution of fish sperm DNA was prepared by dissolving approximately 0.1 g of fish sperm DNA in 10 mL of the buffer. The resulting solution was dialyzed (3.5 kDa MWCO, Visking, Medicell International Ltd) against 0.5 liters of buffer. Following dialysis, the DNA concentration was determined using UV‐visible spectroscopy using a molar absorption coefficient ε260 nm = 12 800 M^−1 cm^−1.^[ [37] ^] Spectra and titrations were plotted in OriginLab Origin 2019b. The titration data were analyzed globally for each complex using an in‐house written version of the multiple independent binding sites model which also explicitly takes changing ligand concentrations into account.^[ [49] ^]

The nature of series [4]: ITC dilution experiments (self-aggregation). It counts as physicochemical. An excerpt: To explore whether multiple binding modes are indeed present for these complexes interacting with DNA, we turned to isothermal titration calorimetry (ITC). ITC typically involves titrating a relatively concentrated solution of the binder into a more dilute solution of DNA (instead of titrating a relatively concentrated DNA solution into a more dilute solution of the binder). Therefore, the possible self‐aggregation of the DNA binders was explored through dilution experiments in which solutions of a complex at representative concentrations in buffer (25 mM MOPS, pH 7.0, 50 mM NaCl) were diluted into matched buffer in the calorimeter cell.
Further experiments at different complex concentrations confirm this sigmoidal behavior of the dilution heat effects around a critical concentration. […] Nevertheless, self‐assembled nanoparticles of organic fluorophores with micromolar CACs have been reported.^[ [43] ^]
CACs are typical for cooperative aggregation processes, such as micellization, and we therefore interpret the data as [Ir(L1)2(en)]Cl cooperatively self‐aggregating in these buffer conditions (25 mM MOPS, pH 7.0, 50 mM NaCl). While it is known that the determination of aggregation numbers from titration calorimetry data is challenging, other thermodynamic parameters are readily available. […] The molar enthalpy for self‐aggregation of −92 kJ mol^−1 (difference between average pre‐ and post‐CAC heat effects) indicates a highly exothermic self‐aggregation process accompanied by a T×Δ°S aggregation of […]. […]
Buffers employed in the experiments were 50 mM NaCl and 25 mM MOPS (adjusted to pH 7 with NaOH) and 5 mM NaCl and 25 mM MOPS (adjusted to pH 7 with NaOH). […] Concentrations of solutions of complexes and of DNA were determined using UV‐visible spectroscopy. […]

Series [5] has as its system FSDNA. The series can be described thus: Steady-state and time-resolved luminescence in absence and presence of FSDNA. Also on record: species or system fish. Particulars: for luminescence intensity enhancement following the addition of DNA: λex = 410 nm, 25 mM MOPS, pH 7.0, 50 mM NaCl, uncorrected for dilution; for increase (lifetime) on DNA binding: time-resolved luminescence, with vs without FSDNA. The method, then: Finally, the influence of DNA binding on the luminescence properties of the complexes was investigated. Steady‐state fluorescence spectra (using λ ex = 410 nm) were recorded both in the absence and presence of FSDNA, using a buffer of 25 mM MOPS, pH 7.0, and 50 mM NaCl. First, the appearance and shape of the emission bands (Figure S26) were not influenced by binding to DNA; the position of the emission maxima and the peak shape were generally retained upon the addition of DNA. […] The time‐resolved luminescence measurements support the inhibition of excited state quenching processes leading to the observed increase in integrated intensity.
All reactions were performed with the use of a vacuum line and Schlenk techniques. Reagents were commercial grade and were used without further purification. ^1H, ^19F, and ^13C NMR spectra were recorded on a Bruker Avance dpx 500 MHz spectrometer and were recorded on d^6‐DMSO solutions. ^1H, ^13C{^1H} NMR chemical shifts (δ) were determined relative to internal tetramethylsilane, Si(CH3)4 and are given in ppm. Mass spectra were obtained by the staff at Cardiff University using a Waters Xevo G2‐XS QTof spectrometer. All photophysical data was obtained on a JobinYvon‐Horiba Fluorolog‐3 spectrometer fitted with a JY TBX picosecond photodetection module. The pulsed source was a Nano‐LED configured for 295 nm output operating at 1 MHz. Luminescence lifetime profiles were obtained using the JobinYvon–Horiba FluoroHub single photon counting module and the data fits yielded the lifetime values using DAS6 deconvolution software. IR spectra were recorded on an ATR‐equipped Shimadzu IRAffinity‐1 spectrophotometer. UV‐vis data were recorded as solutions on a Perkin Elmer Lamda20 spectrophotometer. The pH values of aqueous solutions were determined using a Hanna Instruments pH211 microprocessor pH meter with a Bioblock Scientific pH electrode.

Where [6] appears, read: buffer 25 mM MOPS, pH 7.0, 50 mM NaCl, saturated solutions, estimated via molar absorption coefficients.

Turning to `NCCN.[Cl-].[Ir+3].[c-]1ccccc1-c1nc2ccccc2s1.[c-]1ccccc1-c1nc2ccccc2s1` [[Ir(L1)2(en)]Cl], the Solubility limit in series [1] (pH 7) was found to be 978 µM. Besides, in series [2], the “K A1” value is on record as 239 10^6 M^−1, the “n A1” value is 0.06 bp^−1, the “K B1” value is on record as 0.14 10^6 M^−1 and the “n B1” value is listed as 0.46. For the same molecule, in series [3], the “binding site size (apparent)” value is 0.70 ± 0.15 base pairs and the “K (apparent DNA-binding affinity)” value is on record as 4.3 ± 5.3 10^5 M^−1. Further, the “critical aggregation concentration (CAC)” value in series [4] (25 mM MOPS, pH 7.0, 50 mM NaCl, 25 °C) is given as 2.1 µM. Moreover, the “molar enthalpy for self‐aggregation” value in series [4] (difference between average pre‐ and post‐CAC heat effects) was -22 kcal/mol. Besides, the “equilibrium constant for aggregation” value in series [4] (from CAC, 25 mM MOPS, pH 7.0, 50 mM NaCl) was 480000 M⁻¹.
Regarding `Cc1c[c-]c(-c2nc3ccccc3s2)cc1.Cc1c[c-]c(-c2nc3ccccc3s2)cc1.NCCN.[Cl-].[Ir+3]` [[Ir(L2)2(en)]Cl], the Solubility limit in series [1] (setting [6]) is 327 µM. Besides, in series [2], the “K A1” value is recorded as 132 10^6 M^−1, the “n A1” value is reported as 0.03 bp^−1, the “K B1” value was 0.41 10^6 M^−1 and the “n B1” value amounted to 0.57. Further, in series [3], the “binding site size (apparent)” value was found to be 0.64 ± 0.05 base pairs and the “K (apparent DNA-binding affinity)” value was 4.2 ± 3.7 10^5 M^−1.
As for `COc1c[c-]c(-c2nc3ccccc3s2)cc1.COc1c[c-]c(-c2nc3ccccc3s2)cc1.NCCN.[Cl-].[Ir+3]` [[Ir(L3)2(en)]Cl], the Solubility limit in series [1] (setting [6]) was 739 µM. The “luminescence intensity enhancement following the addition of DNA” value in series [5] is on record as 40–65%. Also, in series [2], the “K A1” value was 19 10^6 M^−1, the “n A1” value is recorded as 0.07 bp^−1, the “K B1” value was 0.13 10^6 M^−1 and the “n B1” value came to 0.31. Moreover, in series [3], the “binding site size (apparent)” value is recorded as 0.76 ± 0.04 base pairs and the “K (apparent DNA-binding affinity)” value was 4.6 ± 2.3 10^5 M^−1.
Turning to `Clc1c[c-]c(-c2nc3ccccc3s2)cc1.Clc1c[c-]c(-c2nc3ccccc3s2)cc1.NCCN.[Cl-].[Ir+3]` [[Ir(L4)2(en)]Cl], the Solubility limit in series [1] (setting [6]) is given as 100 µM. In series [5], the “increase (lifetime) on DNA binding” value is reported as 75%. In series [3], the “binding site size (apparent)” value is 0.43 ± 0.19 base pairs and the “K (apparent DNA-binding affinity)” value is given as 0.8 ± 0.7 10^5 M^−1.
Regarding `FC(F)(F)Oc1c[c-]c(-c2nc3ccccc3s2)cc1.FC(F)(F)Oc1c[c-]c(-c2nc3ccccc3s2)cc1.NCCN.[Cl-].[Ir+3]` [[Ir(L5)2(en)]Cl], in series [1] (setting [6]), the Solubility limit is 75 µM. In addition, in series [5], the “increase (lifetime) on DNA binding” value was found to be 98% and the “luminescence intensity enhancement following the addition of DNA” value is 40–65%. In addition, in series [3], the “binding site size (apparent)” value is 0.92 ± 0.18 base pairs and the “K (apparent DNA-binding affinity)” value is 0.6 ± 0.3 10^5 M^−1.
